# According to patent US20230146455A1, “TREATMENT OF INFLAMMATORY DISEASES WITH PEPTIDES AND PHARMACEUTICAL COMPOSITIONS” (Yuyu Pharma, Inc., priority 2020, published 2023):
# Several values for one entry are separate records, joined by “and”; a condition that tells them apart may be missing. Identical values can stand only once. Where a SMILES comes first, the peptide text is derived from it. [ ]: non-standard residue; d: D form. Hyp = O=C(O)[C@@H]1C[C@@H](O)CN1
# Tests used:
# TNF-alpha = assay: Example 8 main study Luminex, LPS hPBMCs: TNF-alpha; format: cell-based, human; conditions: for TNF-alpha Concentration: individual replicates; for TNF-alpha Concentration (pg/ml), Mean: mean of replicates
# Method: (§1) Human PBMCs were pretreated with YY-101, YDE-011, YDE-043 or reference compound; Xiidra® at various concentration (ranging from […] to 500 nM) for 2 h before stimulation. An equal volume of 0.5% DMSO was used as a vehicle control. Then, the cells were treated with LPS at 5 ug/ml, which was selected based on the pilot study. The supernatants from treated cells were harvested at 24 h and placed in a 96 well for Luminex cytokine & chemokine profiling using a Luminex 200 multiplex assay (Luminex; R&D system, USA).
# (§2) The main study arm with triplicate wells per group in a 24-well plate: • 1. Blank • 2. PBMC: 0.5% DMSO • 3. PBMC+LPS (5 ug/ml) • 4. PBMC+YY-101 500 nM • 5. PBMC+YY-101 50 nM • 6. PBMC+YY-101 5 nM • 7. PBMC+YY-101 0.5 nM • 8. PBMC+LPS (5 ug/ml)+Xiidra® 500 nM • 9. PBMC+LPS (5 ug/ml)+Xiidra® 50 nM • 10. PBMC+LPS (5 ug/ml)+Xiidra® 5 nM • 11. PBMC+LPS (5 ug/ml)+Xiidra® 0.5 nM • 12. PBMC+LPS (5 ug/ml)+Xiidra® 0.05 nM • 13. PBMC+LPS (5 ug/ml)+Xiidra® 0.005 nM • 14. PBMC+LPS (5 ug/ml)+YY-101 500 nM • 15. PBMC+LPS (5 ug/ml)+YY-101 50 nM • 16. PBMC+LPS (5 ug/ml)+YY-101 5 nM • 17. PBMC+LPS (5 ug/ml)+YY-101 0.5 nM • 18. PBMC+LPS (5 ug/ml)+YY-101 0.05 nM • 19. PBMC+LPS (5 ug/ml)+YY-101 0.005 nM • 20. PBMC+LPS (5 ug/ml)+YDE-011 500 nM • 21. PBMC+LPS (5 ug/ml)+YDE-011 50 nM • 22. PBMC+LPS (5 ug/ml)+YDE-011 5 nM • 23. PBMC+LPS (5 ug/ml)+YDE-011 0.5 nM • 24. PBMC+LPS (5 ug/ml)+YDE-011 0.05 nM • 25. PBMC+LPS (5 ug/ml)+YDE-011 0.005 nM • 26. PBMC+LPS (5 ug/ml)+YDE-043 500 nM • 27. PBMC+LPS (5 ug/ml)+YDE-043 50 nM • 28. PBMC+LPS (5 ug/ml)+YDE-043 5 nM • 29. PBMC+LPS (5 ug/ml)+YDE-043 0.5 nM • 30. PBMC+LPS (5 ug/ml)+YDE-043 0.05 nM • 31. PBMC+LPS (5 ug/ml)+YDE-043 0.005 nM
# (§3) Multiplex assay was used to measure 30 cytokines and chemokines. The 1:200 diluted cell supernatant and serial dilution of the standard were dispensed into a 96 well plate at 50 ul/well. Then, the pre-mixed cocktail of antibody-coated magnetic beads was dispensed at 50 ul/well and incubated at room temperature for 2 h in a horizontal orbital microplate shaker at 800±500 rpm. The beads were washed using a magnetic device to prevent loss. The biotin-antibody was dispensed in 50 ul of each well and incubated at room temperature for 1 h in a shaker at 800±500 rpm. After washing, streptavidin-PE was added at 50 ul/well and incubated at room temperature for 30 min in a shaker under the same conditions. Finally, after washing, wash buffer (100 ul/well) was added to the plate and incubated in a shaker for 2 min. The Luminex™ 200 setting were set according to the manufacturer's protocol. The data was calculated with a standard five-parameter logistic nonlinear regression analysis of the data (xPonent software 4.2, USA). Results were presented as concentration (ng/ml or pg/ml).
# IL-2 = assay: Example 8 main study Luminex, LPS hPBMCs: IL-2; format: cell-based, human
# Method: as §1, §2, §3
# [1] = PBMC + LPS(5 ug/ml) + test article 0.005 nM
# [2] = PBMC + LPS(5 ug/ml) + test article 0.05 nM
# [3] = PBMC + LPS(5 ug/ml) + test article 0.5 nM
# [4] = PBMC + LPS(5 ug/ml) + test article 5 nM
# [5] = PBMC + LPS(5 ug/ml) + test article 50 nM
# [6] = PBMC + LPS(5 ug/ml) + test article 500 nM
# [7] = at as low as 5 μM, LPS 5 ug/mL 24 hrs
# [8] = PBMC + LPS(5 ug/ml) + compound 0.005 nM, 24 h
# [9] = PBMC + LPS(5 ug/ml) + compound 0.05 nM, 24 h
# [10] = PBMC + LPS(5 ug/ml) + compound 0.5 nM, 24 h
# [11] = PBMC + LPS(5 ug/ml) + compound 5 nM, 24 h
# [12] = PBMC + LPS(5 ug/ml) + compound 50 nM, 24 h
# [13] = PBMC + LPS(5 ug/ml) + compound 500 nM, 24 h
# [14] = PBMC + compound 0.05 uM, no LPS
compound,measurement,setting,value
CC(C)C[C@H](NC(=O)CNC(=O)[C@H](CC(=O)O)NC(=O)[C@H](CCC(N)=O)NC(=O)CNC(=O)[C@@H]1C[C@@H](O)CN1)C(=O)N[C@@H](C)C(=O)NCC(=O)N1CCC[C@H]1C(=O)N[C@@H](CCCCN)C(=O)O [YY-101] (H-[Hyp]GQDGLAGPK-OH; N-terminus and C-terminus assumed),TNF-alpha Concentration,TNF-alpha; [1],2871.6 pg/mL and 2369.4 pg/mL and 2179.5 pg/mL
same,"TNF-alpha Concentration (pg/ml), Mean",TNF-alpha; [1],2473.5 pg/mL
same,TNF-alpha Concentration,TNF-alpha; [2],1797.0 pg/mL and 2621.2 pg/mL and 2242.9 pg/mL
same,"TNF-alpha Concentration (pg/ml), Mean",TNF-alpha; [2],2220.4 pg/mL
same,TNF-alpha Concentration,TNF-alpha; [3],2432.5 pg/mL and 2242.9 pg/mL and 2116.1 pg/mL
same,"TNF-alpha Concentration (pg/ml), Mean",TNF-alpha; [3],2263.8 pg/mL
same,TNF-alpha Concentration,TNF-alpha; [4],1988.8 pg/mL and 1925.0 pg/mL and 2242.9 pg/mL
same,"TNF-alpha Concentration (pg/ml), Mean",TNF-alpha; [4],2052.2 pg/mL
same,TNF-alpha Concentration,TNF-alpha; [5],1732.8 pg/mL and 1668.5 pg/mL and 1988.8 pg/mL
same,"TNF-alpha Concentration (pg/ml), Mean",TNF-alpha; [5],1796.7 pg/mL
same,TNF-alpha Concentration,TNF-alpha; [6],2179.5 pg/mL and 1988.8 pg/mL and 1797.0 pg/mL
same,"TNF-alpha Concentration (pg/ml), Mean",TNF-alpha; [6],1988.4 pg/mL
same,TNF-alpha Concentration,"TNF-alpha; PBMC + test article 0.5 nM, no LPS, dilution 200",<7.70 pg/mL
same,TNF-alpha Concentration,"TNF-alpha; PBMC + test article 5 nM, no LPS, dilution 200",<7.70 pg/mL
same,TNF-alpha Concentration,"TNF-alpha; PBMC + test article 0.05 uM, no LPS, dilution 200",<7.70 pg/mL
same,TNF-alpha Concentration,"TNF-alpha; PBMC + test article 50 nM, no LPS, dilution 200",<7.70 pg/mL
same,TNF-alpha Concentration,"TNF-alpha; PBMC + test article 500 nM, no LPS, dilution 200",<7.70 pg/mL
same,LPS-induced TNF-α (in words),TNF-alpha; [7],significantly reduced
same,"IL-2 Concentration, individual wells",IL-2; [8],2746.7 pg/mL and 2707.7 pg/mL and 2551.7 pg/mL
same,"IL-2 MFI, individual wells",IL-2; [8],64.5 and 64.0 and 62.0
same,"IL-2 MFI, Mean","IL-2; PBMC + LPS(5 ug/ml) + compound 0.005 nM, 24 h, LPS alone Mean 80.5",63.5
same,"IL-2 Concentration, Mean","IL-2; PBMC + LPS(5 ug/ml) + compound 0.005 nM, 24 h, LPS alone Mean 3988.7",2668.7 pg/mL
same,"IL-2 Concentration, individual wells",IL-2; [9],2785.6 pg/mL and 3174.7 pg/mL and 3058.1 pg/mL
same,"IL-2 MFI, individual wells",IL-2; [9],65.0 and 70.0 and 68.5
same,"IL-2 MFI, Mean","IL-2; PBMC + LPS(5 ug/ml) + compound 0.05 nM, 24 h, LPS alone Mean 80.5",67.8
same,"IL-2 Concentration, Mean","IL-2; PBMC + LPS(5 ug/ml) + compound 0.05 nM, 24 h, LPS alone Mean 3988.7",3006.1 pg/mL
same,"IL-2 Concentration, individual wells",IL-2; [10],2863.5 pg/mL and 2785.6 pg/mL and 2824.6 pg/mL
same,"IL-2 MFI, individual wells",IL-2; [10],66.0 and 65.0 and 65.5
same,"IL-2 MFI, Mean","IL-2; PBMC + LPS(5 ug/ml) + compound 0.5 nM, 24 h, LPS alone Mean 80.5",65.5
same,"IL-2 Concentration, Mean","IL-2; PBMC + LPS(5 ug/ml) + compound 0.5 nM, 24 h, LPS alone Mean 3988.7",2824.6 pg/mL
same,"IL-2 Concentration, individual wells",IL-2; [11],2473.6 pg/mL and 2629.7 pg/mL and 2941.4 pg/mL
same,"IL-2 MFI, individual wells",IL-2; [11],61.0 and 63.0 and 67.0
same,"IL-2 MFI, Mean","IL-2; PBMC + LPS(5 ug/ml) + compound 5 nM, 24 h, LPS alone Mean 80.5",63.7
same,"IL-2 Concentration, Mean","IL-2; PBMC + LPS(5 ug/ml) + compound 5 nM, 24 h, LPS alone Mean 3988.7",2681.6 pg/mL
same,"IL-2 Concentration, individual wells",IL-2; [12],2473.6 pg/mL and 2707.7 pg/mL and 2863.5 pg/mL
same,"IL-2 MFI, individual wells",IL-2; [12],61.0 and 64.0 and 66.0
same,"IL-2 MFI, Mean","IL-2; PBMC + LPS(5 ug/ml) + compound 50 nM, 24 h, LPS alone Mean 80.5",63.7
same,"IL-2 Concentration, Mean","IL-2; PBMC + LPS(5 ug/ml) + compound 50 nM, 24 h, LPS alone Mean 3988.7",2681.6 pg/mL
same,"IL-2 Concentration, individual wells",IL-2; [13],2707.7 pg/mL and 2863.5 pg/mL and 2551.7 pg/mL
same,"IL-2 MFI, individual wells",IL-2; [13],64.0 and 66.0 and 62.0
same,"IL-2 MFI, Mean","IL-2; PBMC + LPS(5 ug/ml) + compound 500 nM, 24 h, LPS alone Mean 80.5",64.0
same,"IL-2 Concentration, Mean","IL-2; PBMC + LPS(5 ug/ml) + compound 500 nM, 24 h, LPS alone Mean 3988.7",2707.6 pg/mL
same,"IL-2 Concentration, individual wells","IL-2; PBMC + compound 0.5 nM, no LPS",173.5 pg/mL and 337.0 pg/mL
same,"IL-2 MFI, individual wells","IL-2; PBMC + compound 0.5 nM, no LPS",32.0 and 34.0
same,"IL-2 MFI, Mean","IL-2; PBMC + compound 0.5 nM, no LPS, 0.5% DMSO Mean 30.7",33.0
same,"IL-2 Concentration, Mean","IL-2; PBMC + compound 0.5 nM, no LPS, 0.5% DMSO Mean 61.8",255.2 pg/mL
same,"IL-2 Concentration, individual wells","IL-2; PBMC + compound 5 nM, no LPS",173.5 pg/mL
same,"IL-2 MFI, individual wells","IL-2; PBMC + compound 5 nM, no LPS",32.0
same,"IL-2 MFI, Mean","IL-2; PBMC + compound 5 nM, no LPS, 0.5% DMSO Mean 30.7",32.0
same,"IL-2 Concentration, Mean","IL-2; PBMC + compound 5 nM, no LPS, 0.5% DMSO Mean 61.8",173.5 pg/mL
same,"IL-2 Concentration, individual wells",IL-2; [14],659.4 pg/mL and 337.0 pg/mL
same,"IL-2 MFI, individual wells",IL-2; [14],38.0 and 34.0
same,"IL-2 MFI, Mean","IL-2; PBMC + compound 0.05 uM, no LPS, 0.5% DMSO Mean 30.7",36.0
same,"IL-2 Concentration, Mean","IL-2; PBMC + compound 0.05 uM, no LPS, 0.5% DMSO Mean 61.8",498.2 pg/mL
same,"IL-2 Concentration, individual wells","IL-2; PBMC + compound 50 nM, no LPS",48.8 pg/mL and 173.5 pg/mL
same,"IL-2 MFI, individual wells","IL-2; PBMC + compound 50 nM, no LPS",30.5 and 32.0
same,"IL-2 MFI, Mean","IL-2; PBMC + compound 50 nM, no LPS, 0.5% DMSO Mean 30.7",31.3
same,"IL-2 Concentration, Mean","IL-2; PBMC + compound 50 nM, no LPS, 0.5% DMSO Mean 61.8",111.2 pg/mL
same,"IL-2 Concentration, individual wells","IL-2; PBMC + compound 500 nM, no LPS",132.3 pg/mL and 255.5 pg/mL
same,"IL-2 MFI, individual wells","IL-2; PBMC + compound 500 nM, no LPS",31.5 and 33.0
same,"IL-2 MFI, Mean","IL-2; PBMC + compound 500 nM, no LPS, 0.5% DMSO Mean 30.7",32.3
same,"IL-2 Concentration, Mean","IL-2; PBMC + compound 500 nM, no LPS, 0.5% DMSO Mean 61.8",193.9 pg/mL
same,LPS-induced IL-2 (in words),IL-2; [7],significantly reduced
